Experimental data as given in PubChem BioAssay AID1963426 (Molecular Pharmacology Branch, DTP, NCI, 2024).
pIC50: −log10 of the molar value.

Test system: 186277-243-T-J2-PDC complex spheroid growth, % test/control
Test: Anticancer human tumor 186277-243-T-J2-PDC patient-derived colon adenocarcinoma cell line growth inhibition [Asc]
Conditions: for pIC50: curve of first compound; for viability, T/C: stronger effect = lower value; active means viability on the fitted dose curve at most 10% of control; inactive means the rest
Method in brief: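 Complex spheroids combining tumor cells with HUVEC endothelial cells and human MSCs, at 37 degrees C, 5% CO2; agents tested alone or combined, half-log dilutions from at or near clinical Cmax, or 10 microM if Cmax unknown.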

[1] = second compound 0.03 µM, first compound 0.00316 µM
[2] = second compound 0.03 µM, first compound 0.01 µM
[3] = second compound 0.03 µM, first compound 0.0316 µM
[4] = second compound 0.03 µM, first compound 0.1 µM
[5] = second compound 0.0949 µM, first compound 0.00316 µM
[6] = second compound 0.0949 µM, first compound 0.01 µM
[7] = second compound 0.0949 µM, first compound 0.0316 µM
[8] = second compound 0.0949 µM, first compound 0.1 µM
[9] = second compound 0.3 µM, first compound 0.00316 µM
[10] = second compound 0.3 µM, first compound 0.01 µM
[11] = second compound 0.3 µM, first compound 0.0316 µM
[12] = second compound 0.3 µM, first compound 0.1 µM
[13] = second compound 0.949 µM, first compound 0.00316 µM
[14] = second compound 0.949 µM, first compound 0.01 µM
[15] = second compound 0.949 µM, first compound 0.0316 µM
[16] = second compound 0.949 µM, first compound 0.1 µM
[17] = second compound 3 µM, first compound 0.00316 µM
[18] = second compound 3 µM, first compound 0.01 µM
[19] = second compound 3 µM, first compound 0.0316 µM
[20] = second compound 3 µM, first compound 0.1 µM
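Further: spheroids exposed to agents for 7 days.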
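Wherever viability, T/C is given: 100% = DMSO vehicle control wells.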

COc1c(OCCCN2CCOCC2)ccc2c3n(c(=NC(=O)c4cnc(N)nc4)nc12)CCN3 + CCN1C(C(=O)NC23CCC(C(=O)O)(CC2)CC3)C(c2cccc(Cl)c2F)C2(C(=O)Nc3cc(Cl)ccc32)C12CCCCC2
inactive: viability, T/C [1] 101% | viability, T/C [2] 75.2% | viability, T/C [3] 46.7% | viability, T/C [4] 18.1% | viability, T/C [5] 67.3% | viability, T/C [6] 64% | viability, T/C [7] 38.8% | viability, T/C [9] 58.1% | viability, T/C [10] 58.4% | viability, T/C [11] 21.4% | viability, T/C [13] 49.5% | viability, T/C [14] 40.1% | viability, T/C [17] 30.3% | viability, T/C [18] 24.8%
> 8.50: pIC50 (second compound 0.949 µM) | pIC50 (second compound 3 µM)
active: viability, T/C (second compound 0.03 µM, first compound 0.316 µM) 9.99% | viability, T/C (second compound 0.03 µM, first compound 1 µM) 6.65% | viability, T/C [8] 9.15% | viability, T/C (second compound 0.0949 µM, first compound 0.316 µM) 4.16% | viability, T/C (second compound 0.0949 µM, first compound 1 µM) 2.21% | viability, T/C [12] 2.26% | viability, T/C (second compound 0.3 µM, first compound 0.316 µM) 1.06% | viability, T/C (second compound 0.3 µM, first compound 1 µM) 0.54% | viability, T/C [15] 9.96% | viability, T/C [16] 0.92% | viability, T/C (second compound 0.949 µM, first compound 0.316 µM) 0.3% | viability, T/C (second compound 0.949 µM, first compound 1 µM) 0.28% | viability, T/C [19] 5.08% | viability, T/C [20] 0.52% | viability, T/C (second compound 3 µM, first compound 0.316 µM) 0.33% | viability, T/C (second compound 3 µM, first compound 1 µM) 0.31%
7.89: pIC50 (second compound 0.3 µM)
7.59: pIC50 (second compound 0.03 µM)
7.72: pIC50 (second compound 0.0949 µM)

NC(=O)C(=Cn1cnc(-c2cc(C(F)(F)F)cc(C(F)(F)F)c2)n1)c1cncnc1 + CCN1C(C(=O)NC23CCC(C(=O)O)(CC2)CC3)C(c2cccc(Cl)c2F)C2(C(=O)Nc3cc(Cl)ccc32)C12CCCCC2
7.63: pIC50 (second compound 0.0949 µM)
> 9.02: pIC50 (second compound 0.949 µM) | pIC50 (second compound 3 µM)
8.16: pIC50 (second compound 0.3 µM)
active: viability, T/C (second compound 0.3 µM, first compound 0.3 µM) 0.39% | viability, T/C (second compound 0.949 µM, first compound 0.03 µM) 7.03% | viability, T/C (second compound 0.949 µM, first compound 0.0949 µM) 1.37% | viability, T/C (second compound 0.949 µM, first compound 0.3 µM) 0.18% | viability, T/C (second compound 3 µM, first compound 0.00949 µM) 3.76% | viability, T/C (second compound 3 µM, first compound 0.03 µM) 0.85% | viability, T/C (second compound 3 µM, first compound 0.0949 µM) 0.44% | viability, T/C (second compound 3 µM, first compound 0.3 µM) 0.84%
7.15: pIC50 (second compound 0.03 µM)
inactive: viability, T/C (second compound 0.03 µM, first compound 0.000949 µM) 111% | viability, T/C (second compound 0.03 µM, first compound 0.003 µM) 113% | viability, T/C (second compound 0.03 µM, first compound 0.00949 µM) 81.5% | viability, T/C (second compound 0.03 µM, first compound 0.03 µM) 60.4% | viability, T/C (second compound 0.03 µM, first compound 0.0949 µM) 56.3% | viability, T/C (second compound 0.03 µM, first compound 0.3 µM) 5.86% | viability, T/C (second compound 0.0949 µM, first compound 0.000949 µM) 109% | viability, T/C (second compound 0.0949 µM, first compound 0.003 µM) 83.3% | viability, T/C (second compound 0.0949 µM, first compound 0.00949 µM) 51.7% | viability, T/C (second compound 0.0949 µM, first compound 0.03 µM) 48% | viability, T/C (second compound 0.0949 µM, first compound 0.0949 µM) 46.1% | viability, T/C (second compound 0.0949 µM, first compound 0.3 µM) 2.91% | viability, T/C (second compound 0.3 µM, first compound 0.000949 µM) 65.2% | viability, T/C (second compound 0.3 µM, first compound 0.003 µM) 58.8% | viability, T/C (second compound 0.3 µM, first compound 0.00949 µM) 45.3% | viability, T/C (second compound 0.3 µM, first compound 0.03 µM) 34.1% | viability, T/C (second compound 0.3 µM, first compound 0.0949 µM) 14% | viability, T/C (second compound 0.949 µM, first compound 0.000949 µM) 44.6% | viability, T/C (second compound 0.949 µM, first compound 0.003 µM) 40.1% | viability, T/C (second compound 0.949 µM, first compound 0.00949 µM) 25.3% | viability, T/C (second compound 3 µM, first compound 0.000949 µM) 24.1% | viability, T/C (second compound 3 µM, first compound 0.003 µM) 20.6%

NC1CCC(NC2CC2c2ccccc2)CC1 (stereo not given) + CCN1C(C(=O)NC23CCC(C(=O)O)(CC2)CC3)C(c2cccc(Cl)c2F)C2(C(=O)Nc3cc(Cl)ccc32)C12CCCCC2
< 7.00: pIC50 (second compound 0.03 µM) | pIC50 (second compound 0.0949 µM) | pIC50 (second compound 0.3 µM) | pIC50 (second compound 0.949 µM)
> 9.50: pIC50 (second compound 3 µM)
inactive: viability, T/C (second compound 0.03 µM, first compound 0.000316 µM) 111% | viability, T/C (second compound 0.03 µM, first compound 0.001 µM) 138% | viability, T/C [1] 112% | viability, T/C [2] 106% | viability, T/C [3] 123% | viability, T/C [4] 113% | viability, T/C (second compound 0.0949 µM, first compound 0.000316 µM) 114% | viability, T/C (second compound 0.0949 µM, first compound 0.001 µM) 132% | viability, T/C [5] 134% | viability, T/C [6] 131% | viability, T/C [7] 131% | viability, T/C [8] 141% | viability, T/C (second compound 0.3 µM, first compound 0.000316 µM) 93.4% | viability, T/C (second compound 0.3 µM, first compound 0.001 µM) 97.8% | viability, T/C [9] 94.9% | viability, T/C [10] 93.3% | viability, T/C [11] 92.9% | viability, T/C [12] 91.3% | viability, T/C (second compound 0.949 µM, first compound 0.000316 µM) 66.3% | viability, T/C (second compound 0.949 µM, first compound 0.001 µM) 69.2% | viability, T/C [13] 66.1% | viability, T/C [14] 65.8% | viability, T/C [15] 67.9% | viability, T/C [16] 65.7% | viability, T/C (second compound 3 µM, first compound 0.000316 µM) 42.1% | viability, T/C (second compound 3 µM, first compound 0.001 µM) 43.6% | viability, T/C [17] 44.1% | viability, T/C [18] 39.5% | viability, T/C [19] 41.4% | viability, T/C [20] 42.8%
